Test results from US20230085307A1, “PYRIDAZINONE COMPOUND AND HERBICIDE” (NISSAN CHEMICAL CORPORATION, priority 2019, published 2023).

Columns and labels:
late watergrass [1] = assay: Test Example 1: herbicidal activity, application before weed generation under submerged conditions (Table 16, symbol A); assay type: in vivo, late watergrass (Echinochloa oryzicola); conditions: 320 g/ha applied herbicide
How it was run: (§1)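 Alluvial soil was flooded to 4 cm depth, weed seeds were sown mixed and 2.5-leaf rice seedlings were transplanted. On sowing day, the compound's emulsion, diluted in water to a set dose, was applied to the water surface. Plants grew at 25–30 °C and were scored 0–5 after three weeks.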

Japanese bulrush [2] = assay: Test Example 1: herbicidal activity, application before weed generation under submerged conditions (Table 16, symbol B); assay type: in vivo, Japanese bulrush (Schoenoplectus juncoides); conditions: 320 g/ha applied herbicide
How it was run: as §1

redroot pigweed = assay: Test Example 5: herbicidal effect by foliage application, plastic box (Table 20, symbol N); assay type: in vivo, redroot pigweed (Amaranthus retroflexus); conditions: foliage application, 320 g/ha, evaluated three weeks after application
How it was run: (§2)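 Sow seeds spot-wise in sterilized diluvial soil; cover with ~1.5 cm soil. Grow 14 days in greenhouse, 25° C. to 30° C. Spray foliage with emulsion diluted to predetermined amount. Rate effect after 3 weeks.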

chickweed = assay: Test Example 5: herbicidal effect by foliage application, plastic box (Table 20, symbol P); assay type: in vivo, common chickweed (Stellaria media); conditions: foliage application, 320 g/ha, evaluated three weeks after application
How it was run: as §2

velvetleaf = assay: Test Example 5: herbicidal effect by foliage application, plastic box (Table 20, symbol M); assay type: in vivo, velvetleaf (Abutilon theophrasti); conditions: foliage application, 320 g/ha, evaluated three weeks after application
How it was run: as §2

wild oat = assay: Test Example 5: herbicidal effect by foliage application, plastic box (Table 20, symbol I); assay type: in vivo, wild oat (Avena fatua); conditions: foliage application, 320 g/ha, evaluated three weeks after application
How it was run: as §2

blackgrass = assay: Test Example 5: herbicidal effect by foliage application, plastic box (Table 20, symbol J); assay type: in vivo, blackgrass (Alopecurus myosuroides); conditions: foliage application, 320 g/ha, evaluated three weeks after application
How it was run: as §2

windgrass = assay: Test Example 5: herbicidal effect by foliage application, plastic box (Table 20, symbol L); assay type: in vivo, windgrass (Apera spica-venti); conditions: foliage application, 320 g/ha, evaluated three weeks after application
How it was run: as §2

Japanese bulrush [3] = assay: Test Example 2: herbicidal activity, application during weed generation under submerged conditions (Table 17, symbol B); assay type: in vivo, Japanese bulrush (Schoenoplectus juncoides); conditions: AAH 320 g/ha; application during weed generation, submerged conditions
How it was run: (§3)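 In this pot test, flooded alluvial soil (water depth 4 cm) holds all three species sown as a mixture. Once seedlings have one to two leaves, the compound's emulsion, thinned with water to the intended dose, is poured on the water; grading follows after three weeks on the earlier criteria.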

oval-leafed pondweed [4] = assay: Test Example 2: herbicidal activity, application during weed generation under submerged conditions (Table 17, symbol C); assay type: in vivo, oval-leafed pondweed (Monochoria vaginalis); conditions: AAH 320 g/ha; application during weed generation, submerged conditions
How it was run: as §3

Italian ryegrass = assay: Test Example 5: herbicidal effect by foliage application, plastic box (Table 20, symbol K); assay type: in vivo, Italian ryegrass (Lolium multiflorum); conditions: foliage application, 320 g/ha, evaluated three weeks after application
How it was run: as §2

barnyard grass [5] = assay: Test Example 5: herbicidal effect by foliage application, plastic box (Table 20, symbol H); assay type: in vivo, barnyard grass (Echinochloa crus-galli); conditions: foliage application, 320 g/ha, evaluated three weeks after application
How it was run: as §2

Chinese sprangletop = assay: Test Example 3: herbicidal effect by foliage application, Wagner pot (Table 18, symbol D); assay type: in vivo, chinese sprangletop (Leptochloa chinensis); conditions: 320 g/ha
How it was run: (§4)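 Plants were sown in alluvial soil held under 0.1–0.5 cm standing water and grown 14 days in a greenhouse at 25–30 °C. An emulsifiable formulation, water-diluted to the set dose, was then sprayed onto the foliage, and effects were scored three weeks later using previously defined criteria.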

southern crabgrass = assay: Test Example 5: herbicidal effect by foliage application, plastic box (Table 20, symbol F); assay type: in vivo, southern crabgrass (Digitaria ciliaris); conditions: foliage application, 320 g/ha, evaluated three weeks after application
How it was run: as §2

false cleavers = assay: Test Example 5: herbicidal effect by foliage application, plastic box (Table 20, symbol Q); assay type: in vivo, false cleavers (Galium spurium); conditions: foliage application, 320 g/ha, evaluated three weeks after application
How it was run: as §2

oval-leafed pondweed [6] = assay: Test Example 1: herbicidal activity, application before weed generation under submerged conditions (Table 16, symbol C); assay type: in vivo, oval-leafed pondweed (Monochoria vaginalis); conditions: 320 g/ha applied herbicide
How it was run: as §1

late watergrass [7] = assay: Test Example 2: herbicidal activity, application during weed generation under submerged conditions (Table 17, symbol A); assay type: in vivo, late watergrass (Echinochloa oryzicola); conditions: AAH 320 g/ha; application during weed generation, submerged conditions
How it was run: as §3

green foxtail = assay: Test Example 5: herbicidal effect by foliage application, plastic box (Table 20, symbol G); assay type: in vivo, green foxtail (Setaria viridis); conditions: foliage application, 320 g/ha, evaluated three weeks after application
How it was run: as §2

rice flat sedge = assay: Test Example 3: herbicidal effect by foliage application, Wagner pot (Table 18, symbol E); assay type: in vivo, rice flat sedge (Cyperus iria); conditions: 320 g/ha
How it was run: as §4

lambsquarters = assay: Test Example 5: herbicidal effect by foliage application, plastic box (Table 20, symbol O); assay type: in vivo, lambsquarters (Chenopodium album); conditions: foliage application, 320 g/ha, evaluated three weeks after application
How it was run: as §2

persian speedwell = assay: Test Example 5: herbicidal effect by foliage application, plastic box (Table 20, symbol R); assay type: in vivo, Persian speedwell (Veronica persica); conditions: foliage application, 320 g/ha, evaluated three weeks after application
How it was run: as §2

barnyard grass [8] = assay: Test Example 3: herbicidal effect by foliage application, Wagner pot (Table 18, symbol H); assay type: in vivo, barnyard grass (Echinochloa crus-galli); conditions: 320 g/ha
How it was run: as §4

## COCCOCOc1c(C)nn(C)c(=O)c1-c1c(-c2ccc(OCc3ccccc3)cc2)sc2ccc(F)cc12 [2-064]
Late watergrass [1]
  Herbicidal effect on A: late watergrass (grade 0-5): 4 (Herbicidal rate of 70% or more and less than 90%)
Japanese bulrush [2]
  Herbicidal effect on B: Japanese bulrush (grade 0-5): 4 (Herbicidal rate of 70% or more and less than 90%)
Redroot pigweed
  herbicidal effect on N: redroot pigweed: 5 (Herbicidal rate of 90% or more (almost completely withered))
chickweed
  herbicidal effect on P: chickweed: 4 (Herbicidal rate of 70% or more and less than 90%)
velvetleaf
  herbicidal effect on M: velvetleaf: 3 (Herbicidal rate of 40% or more and less than 70%)
Wild oat
  herbicidal effect on I: wild oat: 0 (Herbicidal rate of 5% or less (almost no effect))
blackgrass
  herbicidal effect on J: blackgrass: 0 (Herbicidal rate of 5% or less (almost no effect))
windgrass
  herbicidal effect on L: windgrass: 0 (Herbicidal rate of 5% or less (almost no effect))
Japanese bulrush [3]
  herbicidal effect rating, B: Japanese bulrush: 3 (Herbicidal rate of 40% or more and less than 70%)
oval-leafed pondweed [4]
  herbicidal effect rating, C: oval-leafed pondweed: 0 (Herbicidal rate of 5% or less (almost no effect))
Italian ryegrass
  herbicidal effect on K: Italian ryegrass: 0 (Herbicidal rate of 5% or less (almost no effect))
Barnyard grass [5]
  herbicidal effect on H: barnyard grass: 3 (Herbicidal rate of 40% or more and less than 70%)
Chinese sprangletop
  herbicidal effect on D (Chinese sprangletop), rating 0-5: 3 (Herbicidal rate of 40% or more and less than 70%)
Southern crabgrass
  herbicidal effect on F: southern crabgrass: 3 (Herbicidal rate of 40% or more and less than 70%)
False cleavers
  herbicidal effect on Q: false cleavers: 4 (Herbicidal rate of 70% or more and less than 90%)
oval-leafed pondweed [6]
  Herbicidal effect on C: oval-leafed pondweed (grade 0-5): 3 (Herbicidal rate of 40% or more and less than 70%)
Late watergrass [7]
  herbicidal effect rating, A: late watergrass: 3 (Herbicidal rate of 40% or more and less than 70%)
Green foxtail
  herbicidal effect on G: green foxtail: 3 (Herbicidal rate of 40% or more and less than 70%)
Rice flat sedge
  herbicidal effect on E (rice flat sedge), rating 0-5: 0 (Herbicidal rate of 5% or less (almost no effect))
lambsquarters
  herbicidal effect on O: lambsquarters: 4 (Herbicidal rate of 70% or more and less than 90%)
Persian speedwell
  herbicidal effect on R: persian speedwell: 4 (Herbicidal rate of 70% or more and less than 90%)
Barnyard grass [8]
  herbicidal effect on H (barnyard grass), rating 0-5: 3 (Herbicidal rate of 40% or more and less than 70%)
